Data set [1] deals with p38α MAPK. The settings on record: cited from earlier work.
Data set [2] concerns p38α MAPK. Set-up: method as in PMID 34328852. The note with it: HeLa cells, compared with the control anisomycin (30 μM); cited from earlier work.
The test system of data set [3] is HeLa cells. Set-up: method as in PMID 34328852. The settings on record: cited from earlier work.
In data set [4] the test system is MDA‐MB‐231 cell line. Details: method as in PMID 30792101. The settings on record: MTT assay; cited from earlier work.
Data set [5] relates to MCF7 cell line. Details: method as in PMID 30792101. The settings on record: MTT assay; cited from earlier work. A general note: Tetrazolium assays rely on reduction of a dye to a coloured formazan, in cell work by metabolically active cells.
Data set [6] relates to L929 cells. Briefly: MTT cytotoxicity assay, L929 healthy cells. The format is cell-based. The settings on record: healthy mouse fibroblast. Here is the method:
(§1) Cell culture experiments were performed to assess the antiproliferative efficacy of the synthesized benzothiazole compounds on the MCF7 and MDA‐MB‐231 cell lines. The anticancer activity of the compounds were compared with the L929 healthy cell line as a control. Doxorubicin and cisplatin, the anticancer agents, were employed as positive controls.
(§2) Human epithelial breast adenocarcinoma (MDA‐MB‐231) (ATCC® HTB‐26™), human epithelial breast adenocarcinoma (MCF7) (ATCC® HTB‐22™), and healthy mouse fibroblast (L929) (ATCC® CRL‐10317™) cells were obtained commercially from ATCC.
(§3) MDA‐MB‐231, MCF7, and L929 cells were seeded in 25 cm² flasks. DMEM medium containing 10% FBS, 1% Penicillin‐Streptomycin, L‐Glutamine, and NaHCO₃ was used as the cell culture medium. The cells were incubated and propagated at 37°C in an environment containing 5% CO₂ and 95% humidity. When the cells reached 80%–90% confluency, they were passaged to different media. During passaging, DMEM was first withdrawn, and the cells were washed with PBS to remove FBS from the medium. Then, Trypsin‐EDTA solution was added to the flask to detach the cells, and the flask was kept in a CO₂ incubator for approximately 1 min. To stop the activity of Trypsin‐EDTA medium containing FBS was added to the flask. The cells were collected into a Falcon tube and centrifuged at 800 rpm for 5 min at room temperature. The supernatant was discarded, and the cell pellet was resuspended in the medium and seeded on cell culture plates according to the experimental protocol.
(§4) A total of 2 mg of each compound was dissolved in an appropriate amount of dimethyl sulfoxide (DMSO) to prepare 10 mM stock solutions. These stock solutions were then diluted to create 100 μM intermediate stocks and stored at −80°C. Commercially purchased cisplatin and doxorubicin HCl (Sigma, St. Louis, MO) were dissolved in DMSO following the manufacturer's protocol to create 20 mM stock solutions. These standard drug molecules were diluted from the stock solution, divided into 100 μM aliquots, and stored at –80°C until use.
(§5) MTT analysis was performed to evaluate the in vitro cytotoxicity of the synthesized compounds against different cancer cell lines. Cells used in the cytotoxicity experiments were cultured in DMEM medium supplemented with 10% FBS. Cells suspended in the medium (2 × 10⁴ cells/mL) were seeded into 96‐well culture plates and incubated at 37°C in a 5% CO₂ incubator. After 12 h, compounds were added at different doses (2 µL) to cells (2 × 10⁴) in the 96‐well plates and incubated at 37°C for 24 h.
(§6) The incubated cells were then treated with 20 µL of MTT solution and incubated at 37°C for 4 h. The supernatant was carefully removed from each well, and 100 µL of DMSO was added to each well to dissolve the formazan crystals formed by the cellular reduction of MTT. The absorbance was measured at 570 nm using an ELISA reader. […] At the end of the experiment, the device calculated the IC50 value for each well, and the average values were recorded. Each experiment was performed in at least three replicates.

Data set [7] concerns MDA‐MB‐231 cells. Briefly: MTT antiproliferative assay, MDA-MB-231. The settings on record: for IC50: MTT, 24 h incubation; for Selectivity MDA‐MB‐231: Selectivity index = L929 IC50 / MDA‐MB‐231 IC50 (24 h). The format is cell-based, human. The procedure: as §1, §2, §3, §4, §5, §6
Data set [8] relates to MCF7 cells. Briefly: MTT antiproliferative assay, MCF7. The note with it: for IC50: MTT, 24 h incubation; for Selectivity MCF7: Selectivity index = L929 IC50 / MCF7 IC50 (24 h). It counts as cell-based, human. Here is the method:
as §1, §2, §3, §4, §5, §6

Data set [9] relates to p38 MAPKα. Briefly: p38 MAPK alpha ELISA, total level in treated MCF7 cells normalised to total protein (BCA). The format is cell-based, human. The note with it: MCF7 cells exposed to compound. An excerpt:
To account for variations in protein quantities among the cells. The total protein concentrations in cells subjected to the drugs were quantified. The p38 MAPKα levels were adjusted by dividing by the protein levels, yielding results represented as ng/μg protein (Table 3).
A bicinchoninic acid (BCA) protein assay kit (catalog no. 23227) was obtained from Thermo‐Fisher Scientific (IL, USA) and used to detect total protein by the BCA assay. In this assay, the reaction between BCA, Cu²⁺ ions, and Cu⁺ ions form a purple complex in alkaline conditions. The absorbance of this complex was measured at 562 nm, and the results were expressed in mg/mL.
The p38 MAPK alpha ELISA Kit (ab221012; Abcam, Cambridge, MA) was used to measure the levels of […] in cell lysates according to the manufacturer's instructions. The SimpleStep Enzyme‐Linked Immunosorbent Assay (ELISA) kit was designed to assess total p38 MAPKα protein semi‐quantitatively. The SimpleStep ELISA uses a reporter‐conjugated detection antibody, and an affinity‐tag labeled capture antibody to immunocapture the sample analyte in solution. An anti‐tag antibody coating the well immobilizes the entire complex (capture antibody, analyte, and detection antibody).
Samples or controls were added to the wells, followed by the Antibody Cocktail to complete the test. After incubation, the wells were washed to remove unbound material. […] The levels of MAPK were normalized to total protein content.
For orientation: ELISA stands for enzyme-linked immunosorbent assay.

For data set [10], the system named is prostate cancer cells. Set-up: method as in PMID 31838901. The settings on record: cited from earlier work.
Data set [11] relates to normal prostate cells. Set-up: method as in PMID 31838901. The settings on record: cited from earlier work.
Data set [12] relates to p38α MAPK. Set-up: method as in PMID 34894967. The settings on record: MCF‐7 cells; cited from earlier work.

We go through 14 compounds from PMC11975549, “Development of Potent Type V MAPK Inhibitors: Design, Synthesis, and Biological Evaluation of Benzothiazole Derivatives Targeting p38α MAPK in Breast Cancer Cells” (Archiv Der Pharmazie, 2025).

“And” between values parts separate entries of the source, which are not always exact repeats. Equal entries are not always repeated. Where two headings read alike, the source gives them in different places.

Regarding `COc1c(-c2cc(-c3ccc(F)cc3)c(C#N)c(=N)[nH]2)c(O)c(Br)c2occc12` [Compound 8h], the IC50 – broadly, the concentration needed to halve the response being measured – in data set [1] (read-out: IC50 p38α MAPK) is 0.27 µM.
Turning to `Clc1cccc(Cl)c1Nc1ccccc1Cc1nncn1Nc1nc2ccccc2s1` [Compound 12l], in data set [1] (read-out: IC50 p38α MAPK), the IC50 was 0.036 µM.
For the compound `O=C(CSc1nnc(COc2ccccc2)n1-c1ccc(F)cc1)Nc1nc2ccccc2s1` [Compound 13m], the IC50 in data set [1] (read-out: IC50 p38α MAPK) is 0.031 µM.
For the compound `O=c1oc2ccccc2c(O)c1C1=CC(c2ccc(F)cc2)NC(=S)N1` (centres unmarked) [Compound 7g], the “suppression of p38α MAPK activation” value in data set [2] was 0.64. For the same compound, the “reduction in cell viability” value in data set [3] (10 μM) is 80%; in data set [3] (30 μM) it was 72%.
`CCNC(=O)c1ccc(C)c(NC(=O)c2ccc3c(-c4ccc(Cl)cc4)n[nH]c3c2)c1` [Compound 11k, 3‐(4‐chlorophenyl)‐N‐(5‐(ethylcarbamoyl)‐2‐methylphenyl)‐1H‐indazole‐6‐carboxamide]: in data set [1] (read-out: IC50 p38α MAPK), the IC50 was 3.37 ± 0.24 µM.
In the case of `COc1c(C(=O)/C=C/c2ccc(C)o2)c(O)c(Br)c2occc12` [Compound 9i], the half-maximal inhibitory concentration (IC50) is 0.04 µM in data set [1] (read-out: IC50 p38α MAP kinase), 2.09 µM in data set [4] and 1.35 µM in [5].
`O=C(Cc1cccs1)NCc1nc2ccccc2s1` [Compound 28, N‐(Benzo[d]thiazol‐2‐ylmethyl)‐2‐(thiophen‐2‐yl) acetamide]: the IC50 in data set [6] (24 h incubation) worked out at 31 ± 0.33 µM; in [7], 18.8 ± 0.23 µM; in data set [8], 11.1 ± 0.37 µM. In data set [7], the “Selectivity MDA‐MB‐231” value is reported as 1.655. The “Selectivity MCF7” value in [8] turned out to be 2.794. For the same compound, in data set [9], the “Total p38α MAPK levels” value worked out at 2.542 ± 0.228 ng/μg protein.
`COc1cccc(CNC(=O)c2ccc(N3CCOCC3)c(NC(=O)Nc3ccc(F)cc3F)c2)c1` [Compound 5e]: the “viability, proliferation and migration of prostate cancer cells” value in [10] was “inhibited the viability and reduced the proliferation and migration”. Also, in data set [11], the “damage to normal prostate cells” value was “without causing considerable damage”.
For `O=C(Cc1ccccc1)Nc1nc2ccccc2s1` [Compound 19, N‐(Benzo[d]thiazol‐2‐yl)‐2‐phenylacetamide], the concentration for half-maximal inhibition (IC50) in data set [6] (L929, 24 h incubation) turned out to be 93.9 ± 1.9 µM; in data set [7] (Homo sapiens, MDA-MB-231) it was 10.74 ± 0.03 µM; in data set [8] (Homo sapiens, MCF7), 6.19 ± 1.05 µM. The “Selectivity MDA‐MB‐231” value in [7] turned out to be 8.744. Further, in [8], the “Selectivity MCF7” value is 15.171. The “Total p38α MAPK levels” value in data set [9] was 0.112 ng/μg protein and 0.112 ± 0.001 ng/μg protein.
As for `COc1c(-c2cc(-c3ccc(C)o3)c(C#N)c(N)n2)c(O)c(Br)c2occc12` [Compound 6f], the IC50 in [1] (read-out: IC50 p38α MAP kinase) was 0.04 µM.
Regarding `O=C(NCc1nc2ccccc2s1)c1cccs1` [Compound 14, N‐(Benzo[d]thiazol‐2‐ylmethyl) thiophene‐2‐carboxamide], the IC50 in data set [6] (L929, 24 h incubation) was 22.2 ± 0.68 µM; in data set [7] (Homo sapiens, MDA-MB-231) it was 16 ± 0.68 µM; in data set [8] (Homo sapiens, MCF7) it was 10.6 ± 0.16 µM. In [7], the “Selectivity MDA‐MB‐231” value came out at 1.391. Also, the “Selectivity MCF7” value in data set [8] stood at 2.096. In addition, the “Total p38α MAPK levels” value in data set [9] was 0.199 ± 0.011 ng/μg protein.
In the case of `CS(=O)(=O)CCNCc1ccc(-c2ccc3ncnc(Nc4ccc(OCc5cccc(F)c5)c(Cl)c4)c3c2)o1` [lapatinib], the IC50 in [4] and in data set [5] was 4.69 µM in each case.
Consider `Cc1ccc(C(=O)/C=C/c2ccc(Oc3ccc(Br)cc3)cc2)cc1` [Compound 10j], for which, in data set [12], the “total p38α MAPK and phosphorylated enzyme levels” value is “reduced”.
On to `COc1cccc(-c2nn(-c3ccccc3)cc2-c2ccncc2)c1` [Compound 4d], for which, in data set [1] (relative selectivity in comparison to 15 other kinases, read-out: IC50 p38α), the IC50 is 0.515 µM.
